Read-outs that look alike come from different tables or passages of the source.
Legend:
[1] = design: species or system Sprague-Dawley rats; conditions: male, Sprague-Dawley, rat, in vivo, po; for Reference Compound A F %: 1 mg/kg; for Cmax / Reference Compound A AUCinf.: 8.1 mg/kg
Procedure: Ester Reference Compound, Compound 3 and Compound 6 were dosed orally by gavage to male Sprague-Dawley rats (n=3/group); Ester Reference Compound at 6 mg/kg in 2.5% Dimethyl sulfoxide; 10% Kolliphor HS-15; 10% Labrasol; 2.5% Propylene glycol and 75% water, pH 2.5; Compound 3 at 6.65 mg/kg in 10% Dimethyl sulfoxide; 40% Kolliphor HS-15; 40% Labrasol and 10% Propylene glycol and Compound 6 at 8.1 mg/kg in 2.5% Dimethyl sulfoxide; 10% Kolliphor HS-15; 10% Labrasol; 2.5% Propylene glycol and 75% water, pH 2.8. Blood samples were collected into pre-chilled collection tubes containing K2EDTA and processed to plasma at 10 time points over a span of pre-dose to 24 h post-administration. Plasma samples were subject to protein precipitation with a 12.5-fold volume of methanol, vortexed and centrifuged. Supernatants were transferred and evaporated to dryness under nitrogen and reconstituted with 5% acetonitrile in water. Separation was achieved on a Phenomenex Synergi Polar-RP column, a mobile phase A of 10 mM ammonium formate with 0.1% formic acid in water and a mobile phase B of 0.1% formic acid in acetonitrile with a step-wise linear gradient from 5 to 95% mobile phase B. An LC-MS/MS method was used to measure the concentrations of the Reference Compound A and either Ester Reference Compound, Compound 3 or Compound 6 in plasma.

[2] = tested on: Respiratory syncytial virus recombinant with luciferase (RSV-Luc5); experiment: microbe, parasite or virus in culture; assay type: cell-based; conditions: human respiratory syncytial virus, HEp-2, 72 h, read-out: RSV Hep2 EC50
in vitro = assay type: cell-based; conditions: human
Procedure: Cytotoxicity of the compounds was determined in uninfected cells using the cell viability reagent in a similar fashion as described before for other cell types (Cihlar et al., Antimicrob Agents Chemother. 2008, 52(2):655-65). HEp-2 (1.5×10^3 cells/well) and MT-4 (2×10^3 cells/well) cells were plated in 384-well plates and incubated with the appropriate medium containing 3-fold serially diluted compound ranging from 15 nM to 100,000 nM. Cells were cultured for 4-5 days at 37° C. Following the incubation, the cells were allowed to equilibrate to 25° C., and cell viability was determined by adding Cell-Titer Glo viability reagent. The mixture was incubated for 10 min, and the luminescence signal was quantified using an Envision plate reader. Untreated cell and cells treated at 2 μM puromycin (Sigma, St. Louis, MO) serve as 100% and 0% cell viability control, respectively.

[3] = tested on: Respiratory syncytial virus recombinant with luciferase (RSV-Luc5); experiment: microbe, parasite or virus in culture; assay type: cell-based; conditions: human respiratory syncytial virus, NHBE, 72 h, read-out: RSV NHBE EC50
[4] = tested on: SARS Coronavirus 2 recombinant with NanoLuc (SARS-CoV2-NLuc); experiment: organism not typed; assay type: cell-based; conditions: 48 h

Row | SMILES | Reference Compound A F % [1] [%] | Cmax [1] [nM] | Reference Compound A AUCinf. [1] [µM·h] | EC50 [2] [µM] | CC50 (in vitro) [µM] | EC50 [3] [µM] | EC50 [4] [µM]
1 | CC(C)C(=O)OC[C@H]1O[C@@](C#N)(c2ccc3c(N)ncnn23)[C@@H]2OC(=O)O[C@@H]21 [Compound 3, ((3aR,4R,6R,6aR)-6-(4-aminopyrrolo[2,1-f][1,2,4]triazin-7-yl)-6-cyano-2-oxotetrahydrofuro[3,4-d][1,3]dioxol-4-yl)methyl isobutyrate] | 84.7 | 2280 | 10.7 | 0.33 | 50 | 0.512 | 1.75
2 | COC1O[C@H]2[C@@H](O1)[C@](C#N)(c1ccc3c(N)ncnn13)O[C@@H]2COC(=O)C(C)C (stereo partly drawn) [Compound 4, ((3aR,4R,6R,6aR)-6-(4-aminopyrrolo[2,1-f][1,2,4]triazin-7-yl)-6-cyano-2-methoxytetrahydrofuro[3,4-d][1,3]dioxol-4-yl)methyl isobutyrate] |  |  |  |  | > 5 |  | > 50
3 | CC(C)C(=O)OC[C@H]1O[C@@](C#N)(c2ccc3c(=N)n(COP(=O)(O)OCc4ccccc4)cnn23)[C@H](O)[C@@H]1O [Compound 5, ((2R,3S,4R,5R)-5-(3-((((benzyloxy)(hydroxy)phosphoryl)oxy)methyl)-4-imino-3,4-dihydropyrrolo[2,1-f][1,2,4]triazin-7-yl)-5-cyano-3,4-dihydroxytetrahydrofuran-2-yl)methyl isobutyrate] |  |  |  |  | > 50 |  | > 50
4 | CC(C)C(=O)OC[C@H]1O[C@@](C#N)(c2ccc3c(=N)n(COP(=O)(O)O)cnn23)[C@H](O)[C@@H]1O [Compound 6, ((2R,3S,4R,5R)-5-cyano-3,4-dihydroxy-5-(4-imino-3-((phosphonooxy)methyl)-3,4-dihydropyrrolo[2,1-f][1,2,4]triazin-7-yl)tetrahydrofuran-2-yl)methyl isobutyrate] | 54.4 | 3080 | 6.86 | 0.719 | 50 | 3.55 | 3.65
5 | CC(=O)Nc1ncnn2c([C@]3(C#N)O[C@H](COC(C)=O)[C@@H](OC(C)=O)[C@H]3OC(C)=O)ccc12 [Compound 7, (2R,3R,4R,5R)-2-(4-acetamidopyrrolo[2,1-f][1,2,4]triazin-7-yl)-5-(acetoxymethyl)-2-cyanotetrahydrofuran-3,4-diyl diacetate] |  |  |  |  |  | 0.932 | 5.54
6 | CCCC(=O)Nc1ncnn2c([C@]3(C#N)O[C@H](COC(C)=O)[C@@H](OC(C)=O)[C@H]3OC(C)=O)ccc12 [Compound 8, (2R,3R,4R,5R)-5-(acetoxymethyl)-2-(4-butyramidopyrrolo[2,1-f][1,2,4]triazin-7-yl)-2-cyanotetrahydrofuran-3,4-diyl diacetate] |  |  |  |  |  | 0.405 | 3.14
7 | CCCC(=O)Nc1ncnn2c([C@]3(C#N)O[C@H](COC(=O)C(C)C)[C@@H](O)[C@H]3O)ccc12 [Compound 9, ((2R,3S,4R,5R)-5-(4-butyramidopyrrolo[2,1-f][1,2,4]triazin-7-yl)-5-cyano-3,4-dihydroxytetrahydrofuran-2-yl)methyl isobutyrate] |  |  |  | 0.529 | > 50 |  | 1.95
8 | CCCCCC(=O)Nc1ncnn2c([C@]3(C#N)O[C@H](COC(=O)C(C)C)[C@@H](O)[C@H]3O)ccc12 [Compound 10, ((2R,3S,4R,5R)-5-cyano-5-(4-hexanamidopyrrolo[2,1-f][1,2,4]triazin-7-yl)-3,4-dihydroxytetrahydrofuran-2-yl)methyl isobutyrate] |  |  |  |  | > 50 |  | 1.22
9 | CCCCCCCC(=O)Nc1ncnn2c([C@]3(C#N)O[C@H](COC(=O)C(C)C)[C@@H](O)[C@H]3O)ccc12 [Compound 11, ((2R,3S,4R,5R)-5-cyano-3,4-dihydroxy-5-(4-octanamidopyrrolo[2,1-f][1,2,4]triazin-7-yl)tetrahydrofuran-2-yl)methyl isobutyrate] |  |  |  |  | 42.4 | 0.188 | 0.935
10 | CC(C)C(=O)OC[C@H]1O[C@@](C#N)(c2ccc3c(N)ncnn23)[C@H](O)[C@@H]1O [Ester Reference Compound, reference compound] |  | 2100 | 7.57 |  |  |  | 

Reference: US20230322813A1, “COMPOUNDS AND METHODS FOR TREATMENT OF VIRAL INFECTIONS” (Gilead Sciences, Inc., priority 2022, published 2023)
